Reference: patent US8829007B2 (priority 2009, dated 2014)
Read-outs that look alike come from different tables or passages of the source.

System: influenza A virus (A/PR/8/34)
Assay: microbe, parasite or virus in culture
Format: cell-based
[1] = Influenza A virus, PR/8, MDCK, MDCK cells infected with A/PR/8/34, cell protection (CPE), read-out: IC50 (mean all)
[2] = Influenza A virus, PR/8, MDCK, mean all, A/PR/8/34 infected MDCK cells, CPE assay, read-out: IC50

Row | SMILES | IC50 [1] [µM] | further results
1 | C[C@@H](CO)CN1CCC[C@@H](CNc2nc(-c3c[nH]c4ncc(Cl)cc34)ncc2F)C1 [Compound 141, (R)-3-((S)-3-((2-(5-chloro-1H-pyrrolo[2,3-b]pyridin-3-yl)-5-fluoropyrimidin-4-ylamino)methyl)piperidin-1-yl)-2-methylpropan-1-ol] | > 20 | –
2 | O=C(c1ccccc1Oc1ccccc1)N1CCC[C@H](CNc2nc(-c3c[nH]c4ncc(Cl)cc34)ncc2F)C1 [Compound 150, (R)-(3-((2-(5-chloro-1H-pyrrolo[2,3-b]pyridin-3-yl)-5-fluoropyrimidin-4-ylamino)methyl)piperidin-1-yl)(2-phenoxyphenyl)methanone] | 5 to 20 | –
3 | CCOc1ccccc1C(=O)N1CCC[C@H](CNc2nc(-c3c[nH]c4ncc(Cl)cc34)ncc2F)C1 [Compound 158, (R)-(3-((2-(5-chloro-1H-pyrrolo[2,3-b]pyridin-3-yl)-5-fluoropyrimidin-4-ylamino)methyl)piperidin-1-yl)(2-ethoxyphenyl)methanone] | < 5 | –
4 | O=C(c1nccs1)N1CCCC[C@H]1CNc1nc(-c2c[nH]c3ncc(Cl)cc23)ncc1F [Compound 165, (S)-(2-((2-(5-chloro-1H-pyrrolo[2,3-b]pyridin-3-yl)-5-fluoropyrimidin-4-ylamino)methyl)piperidin-1-yl)(thiazol-2-yl)methanone] | > 20 | –
5 | COc1cccc(C(=O)N2CCCC[C@H]2CNc2nc(-c3c[nH]c4ncc(Cl)cc34)ncc2F)c1 [Compound 174, (S)-(2-((2-(5-chloro-1H-pyrrolo[2,3-b]pyridin-3-yl)-5-fluoropyrimidin-4-ylamino)methyl)piperidin-1-yl)(3-methoxyphenyl)methanone] | > 20 | –
6 | COc1cccc(C(=O)N2CCCC[C@@H]2CNc2nc(-c3c[nH]c4ncc(Cl)cc34)ncc2F)c1 [Compound 184, (R)-(2-((2-(5-chloro-1H-pyrrolo[2,3-b]pyridin-3-yl)-5-fluoropyrimidin-4-ylamino)methyl)piperidin-1-yl)(3-methoxyphenyl)methanone] | > 20 | –
7 | COc1ccccc1C(=O)N1CCCC[C@@H]1CNc1nc(-c2c[nH]c3ncc(Cl)cc23)ncc1F [Compound 190, (R)-(2-((2-(5-chloro-1H-pyrrolo[2,3-b]pyridin-3-yl)-5-fluoropyrimidin-4-ylamino)methyl)piperidin-1-yl)(2-methoxyphenyl)methanone] | 5 to 20 | –
8 | NC1CCCCC1Nc1nc(-c2c[nH]c3ncccc23)ncc1F (stereo not drawn) [Compound 206, N-[5-fluoro-2-(1H-pyrrolo[5,4-b]pyridin-3-yl)pyrimidin-4-yl]cyclohexane-cis-1,2-diamine] | – | IC50 (MDCK cells infected with A/PR/8/34, cell protection (CPE), read-out: IC50 (mean all)): < 5 µM
9 | CCCC(=O)N1CCC[C@@H](CNc2nc(-c3c[nH]c4ncccc34)ncc2F)C1 [Compound 225, (S)-1-(3-((5-fluoro-2-(1H-pyrrolo[2,3-b]pyridin-3-yl)pyrimidin-4-ylamino)methyl)piperidin-1-yl)butan-1-one] | 5 to 20 | –
10 | CN(C)C(=O)N1CCC[C@@H](CNc2nc(-c3c[nH]c4ncccc34)ncc2F)C1 [Compound 228, (S)-3-((5-fluoro-2-(1H-pyrrolo[2,3-b]pyridin-3-yl)pyrimidin-4-ylamino)methyl)-N,N-dimethylpiperidine-1-carboxamide] | 5 to 20 | –
11 | CC(=O)N1CCCC[C@H]1CNc1nc(-c2c[nH]c3ncccc23)ncc1F [Compound 256, (S)-1-(2-((5-fluoro-2-(1H-pyrrolo[2,3-b]pyridin-3-yl)pyrimidin-4-ylamino)methyl)piperidin-1-yl)ethanone] | 5 to 20 | –
12 | CCC(=O)N1CCCC[C@H]1CNc1nc(-c2c[nH]c3ncccc23)ncc1F [Compound 257, (S)-1-(2-((5-fluoro-2-(1H-pyrrolo[2,3-b]pyridin-3-yl)pyrimidin-4-ylamino)methyl)piperidin-1-yl)propan-1-one] | 5 to 20 | –
13 | CCCC(=O)N1CCCC[C@H]1CNc1nc(-c2c[nH]c3ncccc23)ncc1F [Compound 258, (S)-1-(2-((5-fluoro-2-(1H-pyrrolo[2,3-b]pyridin-3-yl)pyrimidin-4-ylamino)methyl)piperidin-1-yl)butan-1-one] | 5 to 20 | –
14 | O=C(c1ccccc1)N1CCCC[C@H]1CNc1nc(-c2c[nH]c3ncccc23)ncc1F [Compound 259, (S)-(2-((5-fluoro-2-(1H-pyrrolo[2,3-b]pyridin-3-yl)pyrimidin-4-ylamino)methyl)piperidin-1-yl)(phenyl)methanone] | 5 to 20 | –
15 | COc1ccccc1C(=O)N1CCCC[C@H]1CNc1nc(-c2c[nH]c3ncccc23)ncc1F [Compound 260, (S)-(2-((5-fluoro-2-(1H-pyrrolo[2,3-b]pyridin-3-yl)pyrimidin-4-ylamino)methyl)piperidin-1-yl)(2-methoxyphenyl)methanone] | > 20 | –
16 | CC(=O)N1CCC[C@H](CNc2nc(-c3c[nH]c4ncccc34)ncc2F)C1 [Compound 268, (R)-1-(3-((5-fluoro-2-(1H-pyrrolo[2,3-b]pyridin-3-yl)pyrimidin-4-ylamino)methyl)piperidin-1-yl)ethanone] | 5 to 20 | –
17 | CCC(=O)N1CCCC(CNc2nc(-c3c[nH]c4ncccc34)ncc2F)C1 (stereo not shown) [Compound 269] | – | IC50 (Influenza A virus, PR/8, MDCK, read-out: IC50 (mean all)): 5 to 20 µM

Row | SMILES | IC50 [1] [µM] | further results
18 | CCCC(=O)N1CCC[C@H](CNc2nc(-c3c[nH]c4ncccc34)ncc2F)C1 [Compound 270, (R)-1-(3-((5-fluoro-2-(1H-pyrrolo[2,3-b]pyridin-3-yl)pyrimidin-4-ylamino)methyl)piperidin-1-yl)butan-1-one] | 5 to 20 | –
19 | O=C(c1ccccc1)N1CCC[C@H](CNc2nc(-c3c[nH]c4ncccc34)ncc2F)C1 [Compound 271, (R)-(3-((5-fluoro-2-(1H-pyrrolo[2,3-b]pyridin-3-yl)pyrimidin-4-ylamino)methyl)piperidin-1-yl)(phenyl)methanone] | 5 to 20 | –
20 | COc1ccccc1C(=O)N1CCC[C@H](CNc2nc(-c3c[nH]c4ncccc34)ncc2F)C1 [Compound 272, (R)-(3-((5-fluoro-2-(1H-pyrrolo[2,3-b]pyridin-3-yl)pyrimidin-4-ylamino)methyl)piperidin-1-yl)(2-methoxyphenyl)methanone] | > 20 | –
21 | CNC(=O)N1CCC[C@H](CNc2nc(-c3c[nH]c4ncccc34)ncc2F)C1 [Compound 274] | 5 to 20 | –
22 | CCNC(=O)N1CCC[C@H](CNc2nc(-c3c[nH]c4ncccc34)ncc2F)C1 [Compound 275, (R)—N-ethyl-3-((5-fluoro-2-(1H-pyrrolo[2,3-b]pyridin-3-yl)pyrimidin-4-ylamino)methyl)piperidine-1-carboxamide] | 5 to 20 | –
23 | CCCNC(=O)N1CCC[C@H](CNc2nc(-c3c[nH]c4ncccc34)ncc2F)C1 [Compound 276] | > 20 | –
24 | O=C(CCCCl)N1CCCC[C@@H]1CNc1nc(-c2c[nH]c3ncc(Cl)cc23)ncc1F [Compound 278, (R)-4-chloro-1-(2-((2-(5-chloro-1H-pyrrolo[2,3-b]pyridin-3-yl)-5-fluoropyrimidin-4-ylamino)methyl)piperidin-1-yl)butan-1-one] | > 20 | –
25 | O=C(CC1CCCCC1)N1CCCC[C@@H]1CNc1nc(-c2c[nH]c3ncc(Cl)cc23)ncc1F [Compound 294, (R)-1-(2-((2-(5-chloro-1H-pyrrolo[2,3-b]pyridin-3-yl)-5-fluoropyrimidin-4-ylamino)methyl)piperidin-1-yl)-2-cyclohexylethanone] | > 20 | –
26 | CCCS(=O)(=O)N1CCCC[C@@H]1CNc1nc(-c2c[nH]c3ncc(Cl)cc23)ncc1F [Compound 328, (R)-2-(5-chloro-1H-pyrrolo[2,3-b]pyridin-3-yl)-5-fluoro-N-((1-(propylsulfonyl)piperidin-2-yl)methyl)pyrimidin-4-amine] | – | IC50 [2]: > 20 µM
27 | CCCCS(=O)(=O)N1CCCC[C@@H]1CNc1nc(-c2c[nH]c3ncc(Cl)cc23)ncc1F [Compound 329, (R)—N-((1-(butylsulfonyl)piperidin-2-yl)methyl)-2-(5-chloro-1H-pyrrolo[2,3-b]pyridin-3-yl)-5-fluoropyrimidin-4-amine] | – | IC50 [2]: > 20 µM
28 | CC(=O)N[C@@H]1CCCC[C@H]1Nc1nc(-c2c[nH]c3ncccc23)ncc1F [Compound 348, N-[(1R,2R)-2-[[5-fluoro-2-(1H-pyrrolo[2,3-b]pyridin-3-yl)pyrimidin-4-yl]amino]cyclohexyl]acetamide] | – | IC50 [2]: > 20 µM
29 | O=C(N[C@@H]1CCCC[C@H]1Nc1nc(-c2c[nH]c3ncc(Cl)cc23)ncc1F)C1CCCC1 [Compound 351, N-[(1R,2R)-2-[[2-(5-chloro-1H-pyrrolo[2,3-b]pyridin-3-yl)-5-fluoro-pyrimidin-4-yl]amino]cyclohexyl]cyclopentanecarboxamide] | – | IC50 [2]: > 20 µM
30 | O=C(N[C@@H]1CCCC[C@H]1Nc1nc(-c2c[nH]c3ncc(Cl)cc23)ncc1F)c1ccccc1 [Compound 352, N-[(1R,2R)-2-[[2-(5-chloro-1H-pyrrolo[2,3-b]pyridin-3-yl)-5-fluoro-pyrimidin-4-yl]amino]cyclohexyl]benzamide] | – | IC50 [2]: > 20 µM
31 | CS(=O)(=O)N[C@@H]1CCCC[C@H]1Nc1nc(-c2c[nH]c3ncc(Cl)cc23)ncc1F [Compound 353, N-[(1R,2R)-2-[[2-(5-chloro-1H-pyrrolo[2,3-b]pyridin-3-yl)-5-fluoro-pyrimidin-4-yl]amino]cyclohexyl]methanesulfonamide] | – | IC50 [2]: > 20 µM
32 | CCCS(=O)(=O)N[C@@H]1CCCC[C@H]1Nc1nc(-c2c[nH]c3ncc(Cl)cc23)ncc1F [Compound 354, N-[(1R,2R)-2-[[2-(5-chloro-1H-pyrrolo[2,3-b]pyridin-3-yl)-5-fluoro-pyrimidin-4-yl]amino]cyclohexyl]propane-1-sulfonamide] | – | IC50 [2]: > 20 µM
33 | CCCNC(=O)N[C@@H]1CCCC[C@H]1Nc1nc(-c2c[nH]c3ncc(Cl)cc23)ncc1F [Compound 355, 1-[(1R,2R)-2-[[2-(5-chloro-1H-pyrrolo[2,3-b]pyridin-3-yl)-5-fluoro-pyrimidin-4-yl]amino]cyclohexyl]-3-propyl-urea] | – | IC50 [2]: > 20 µM
34 | CCC(=O)N[C@@H]1CCCC[C@H]1Nc1nc(-c2c[nH]c3ncccc23)ncc1F [Compound 356, N-[(1R,2R)-2-[[5-fluoro-2-(1H-pyrrolo[2,3-b]pyridin-3-yl)pyrimidin-4-yl]amino]cyclohexyl]propanamide] | – | IC50 [2]: > 20 µM
